Assay results: patent US8586603B2, “Aminotetraline derivatives” (priority 2009, dated 2013)

Tests used:
[1] = molecular target: T1, porcine cortical p5-HT2 serotonin receptor (Sus scrofa, UniProt P50129); assay: Receptor binding assay, [3H]ketanserin competition, porcine cortical membranes; conditions: for Ki: means of 2-8 individual experiments each done as triplicate; for selectivity ratio p5-HT2: vs p5-HT1a
T1 construct: membrane homogenates prepared from porcine striatal or cortical tissue; from tissue; host or cells: porcine cortex
T1 sequence (P50129 whole entry): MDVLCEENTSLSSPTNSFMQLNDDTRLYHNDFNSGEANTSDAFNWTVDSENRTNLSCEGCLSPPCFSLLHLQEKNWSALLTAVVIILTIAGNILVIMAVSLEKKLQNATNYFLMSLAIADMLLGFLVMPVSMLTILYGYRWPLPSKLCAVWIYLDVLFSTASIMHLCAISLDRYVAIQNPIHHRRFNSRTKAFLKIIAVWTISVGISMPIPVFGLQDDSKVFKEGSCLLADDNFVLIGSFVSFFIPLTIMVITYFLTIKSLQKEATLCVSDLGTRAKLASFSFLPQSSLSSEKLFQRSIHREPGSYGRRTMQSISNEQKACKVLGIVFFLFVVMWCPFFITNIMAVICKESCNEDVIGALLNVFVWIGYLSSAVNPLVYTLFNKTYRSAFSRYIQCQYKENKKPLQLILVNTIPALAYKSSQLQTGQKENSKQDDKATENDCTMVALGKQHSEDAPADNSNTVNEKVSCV

[2] = molecular target: T2, human dopamine receptor subtype hD4.4 (Homo sapiens, UniProt P21917); assay: Receptor binding assay, [3H]spiperone competition, CHO cell membranes; conditions: for Ki: means of 2-8 individual experiments each done as triplicate; for selectivity ratio hD4.4: vs p5-HT1a
T2 construct: expressed in transfected cells; host or cells: CHO
T2 sequence (P21917 1-419): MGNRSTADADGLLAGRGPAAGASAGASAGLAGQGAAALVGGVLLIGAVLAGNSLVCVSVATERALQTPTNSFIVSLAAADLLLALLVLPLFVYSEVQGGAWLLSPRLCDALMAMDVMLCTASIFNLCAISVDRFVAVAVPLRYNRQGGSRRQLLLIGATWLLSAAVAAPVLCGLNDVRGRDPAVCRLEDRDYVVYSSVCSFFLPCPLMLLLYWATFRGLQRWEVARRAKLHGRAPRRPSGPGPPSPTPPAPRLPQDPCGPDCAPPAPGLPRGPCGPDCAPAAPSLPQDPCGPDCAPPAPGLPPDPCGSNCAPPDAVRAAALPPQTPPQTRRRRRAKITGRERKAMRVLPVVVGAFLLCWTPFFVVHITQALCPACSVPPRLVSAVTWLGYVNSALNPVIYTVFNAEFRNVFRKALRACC
Procedure: Receptor binding data were determined when performing competition binding assays with membrane preparations of cloned cells (stably transfected Chinese Hamster Ovary cells (CHO)) expressing the human receptors and the following radioligands: [^3H]spiperone at the human dopamine receptor subtypes hD2long, hD2short, D3, and hD4.4. […].
(§1) Selectivity ratios were calculated by division of the Ki values of the various compounds at the respective receptors through the Ki values at the 5HT1a receptor.

[3] = molecular target: T3, porcine cortical p5-HT1a serotonin receptor (Sus scrofa, UniProt A0A4X1UTF5); assay: Receptor binding assay, [3H]WAY100635 competition, porcine cortical membranes; conditions: for Ki: means of 2-8 individual experiments each done as triplicate; for selectivity ratio p5-HT1a: reference receptor of the ratio (=1)
T3 construct: membrane homogenates prepared from porcine striatal or cortical tissue; from tissue; host or cells: porcine cortex
T3 sequence (A0A4X1UTF5 1-422): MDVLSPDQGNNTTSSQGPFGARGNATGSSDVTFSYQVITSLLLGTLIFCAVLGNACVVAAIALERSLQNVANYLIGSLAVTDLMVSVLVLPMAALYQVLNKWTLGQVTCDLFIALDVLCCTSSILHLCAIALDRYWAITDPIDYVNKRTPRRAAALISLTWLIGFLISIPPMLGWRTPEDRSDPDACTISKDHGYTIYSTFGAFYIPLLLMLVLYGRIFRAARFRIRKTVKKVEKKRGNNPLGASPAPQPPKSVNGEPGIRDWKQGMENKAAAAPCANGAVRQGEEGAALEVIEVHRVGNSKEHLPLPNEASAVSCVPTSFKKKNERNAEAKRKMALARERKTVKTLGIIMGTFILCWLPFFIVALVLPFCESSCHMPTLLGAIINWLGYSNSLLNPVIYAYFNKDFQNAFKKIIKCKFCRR

[4] = molecular target: T4, porcine cortical pα1 adrenergic receptor; assay: Receptor binding assay, [3H]prazosin competition, porcine cortical membranes; conditions: means of 2-8 individual experiments each done as triplicate
T4 construct: Ki pα1; other: means of 2-8 individual experiments each done as triplicate

[5] = molecular target: T5, porcine striatal pD1 dopamine receptor (Sus scrofa, UniProt P50130); assay: Receptor binding assay, [3H]SCH 23390 competition, porcine striatal membranes; conditions: for Ki: means of 2-8 individual experiments each done as triplicate; for selectivity ratio pD1: vs p5-HT1a
T5 construct: membrane homogenates prepared from porcine striatal or cortical tissue; from tissue; host or cells: porcine striatum
T5 sequence (P50130 whole entry): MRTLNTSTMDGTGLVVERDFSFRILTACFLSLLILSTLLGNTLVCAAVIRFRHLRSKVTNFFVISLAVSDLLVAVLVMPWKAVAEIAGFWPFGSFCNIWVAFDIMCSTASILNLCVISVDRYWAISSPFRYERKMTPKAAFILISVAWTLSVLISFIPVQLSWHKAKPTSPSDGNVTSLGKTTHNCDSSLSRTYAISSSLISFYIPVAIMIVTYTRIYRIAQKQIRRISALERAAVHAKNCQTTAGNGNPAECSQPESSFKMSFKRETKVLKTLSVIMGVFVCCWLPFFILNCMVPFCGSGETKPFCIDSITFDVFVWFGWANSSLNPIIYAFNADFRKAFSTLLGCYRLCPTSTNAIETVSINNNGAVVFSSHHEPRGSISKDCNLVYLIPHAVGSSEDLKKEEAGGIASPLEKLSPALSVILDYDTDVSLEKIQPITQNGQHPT

[6] = molecular target: T6, human dopamine receptor subtype hD2long (Homo sapiens, UniProt P14416); assay: Receptor binding assay, [3H]spiperone competition, CHO cell membranes; conditions: for Ki: means of 2-8 individual experiments each done as triplicate; for selectivity ratio hD2long: vs p5-HT1a
T6 construct: expressed in transfected cells; host or cells: CHO
T6 sequence (P14416 whole entry): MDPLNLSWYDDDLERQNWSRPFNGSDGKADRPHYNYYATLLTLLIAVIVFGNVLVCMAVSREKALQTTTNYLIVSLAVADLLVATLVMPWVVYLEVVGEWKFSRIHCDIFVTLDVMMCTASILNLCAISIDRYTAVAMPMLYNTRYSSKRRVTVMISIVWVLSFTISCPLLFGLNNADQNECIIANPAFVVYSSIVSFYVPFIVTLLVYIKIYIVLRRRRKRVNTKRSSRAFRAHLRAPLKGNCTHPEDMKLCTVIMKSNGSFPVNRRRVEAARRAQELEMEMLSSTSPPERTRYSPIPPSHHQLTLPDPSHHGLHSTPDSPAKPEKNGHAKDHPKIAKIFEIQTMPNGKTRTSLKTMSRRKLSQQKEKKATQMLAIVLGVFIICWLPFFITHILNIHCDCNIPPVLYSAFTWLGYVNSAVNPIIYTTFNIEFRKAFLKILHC
Procedure: (§2) Receptor binding data were determined when performing competition binding assays with membrane preparations of cloned cells (stably transfected Chinese Hamster Ovary cells (CHO)) expressing the human receptors and the following radioligands: [^3H]spiperone at the human dopamine receptor subtypes hD2long, hD2short, D3, and hD4.4.
as §1

[7] = molecular target: T7, human dopamine receptor subtype hD3 (Homo sapiens, UniProt P35462); assay: as above; conditions: for Ki: means of 2-8 individual experiments each done as triplicate; for selectivity ratio hD3: vs p5-HT1a
T7 construct: expressed in transfected cells; host or cells: CHO
T7 sequence (P35462 whole entry): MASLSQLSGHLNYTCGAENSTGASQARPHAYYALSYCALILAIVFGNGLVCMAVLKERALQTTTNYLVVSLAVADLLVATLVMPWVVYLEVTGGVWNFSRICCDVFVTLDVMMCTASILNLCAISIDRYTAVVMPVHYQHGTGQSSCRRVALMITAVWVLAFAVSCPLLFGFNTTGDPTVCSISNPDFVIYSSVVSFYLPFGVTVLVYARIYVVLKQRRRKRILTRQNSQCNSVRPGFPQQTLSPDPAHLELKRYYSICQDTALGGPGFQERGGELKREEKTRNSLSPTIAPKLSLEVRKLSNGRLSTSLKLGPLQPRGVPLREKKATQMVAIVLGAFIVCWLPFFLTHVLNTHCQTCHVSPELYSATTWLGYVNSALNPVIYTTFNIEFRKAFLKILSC
Procedure: as §2, §1

[8] = molecular target: T8, human dopamine receptor subtype hD2short (Homo sapiens, UniProt P14416); assay: as above; conditions: for Ki: means of 2-8 individual experiments each done as triplicate; for selectivity ratio hD2short: vs p5-HT1a
T8 construct: expressed in transfected cells; host or cells: CHO
T8 sequence (P14416 1-414 isoform P14416-2): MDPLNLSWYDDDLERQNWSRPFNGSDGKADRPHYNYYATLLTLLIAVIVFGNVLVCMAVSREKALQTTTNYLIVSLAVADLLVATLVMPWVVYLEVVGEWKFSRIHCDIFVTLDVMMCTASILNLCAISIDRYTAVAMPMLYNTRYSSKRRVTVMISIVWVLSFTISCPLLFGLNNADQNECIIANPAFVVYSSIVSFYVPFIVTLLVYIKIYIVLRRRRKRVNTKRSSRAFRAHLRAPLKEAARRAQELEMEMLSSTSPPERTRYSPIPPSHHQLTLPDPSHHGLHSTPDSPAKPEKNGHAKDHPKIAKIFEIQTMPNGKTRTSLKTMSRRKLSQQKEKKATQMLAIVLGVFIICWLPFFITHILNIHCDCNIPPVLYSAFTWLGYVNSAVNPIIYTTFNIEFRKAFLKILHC
Procedure: as §2, §1

[9] = test system: porcine cortical pα1 adrenergic receptor; assay: Receptor binding assay, [3H]prazosin competition, porcine cortical membranes; conditions: vs p5-HT1a
human 5-HT1a receptor = molecular target: T9, human 5-HT1a receptor (Homo sapiens, UniProt P08908); assay: [35S]GTPγS functional assay; assay type: biochemical
T9 construct: expressed in transfected cells
T9 sequence (P08908 1-422): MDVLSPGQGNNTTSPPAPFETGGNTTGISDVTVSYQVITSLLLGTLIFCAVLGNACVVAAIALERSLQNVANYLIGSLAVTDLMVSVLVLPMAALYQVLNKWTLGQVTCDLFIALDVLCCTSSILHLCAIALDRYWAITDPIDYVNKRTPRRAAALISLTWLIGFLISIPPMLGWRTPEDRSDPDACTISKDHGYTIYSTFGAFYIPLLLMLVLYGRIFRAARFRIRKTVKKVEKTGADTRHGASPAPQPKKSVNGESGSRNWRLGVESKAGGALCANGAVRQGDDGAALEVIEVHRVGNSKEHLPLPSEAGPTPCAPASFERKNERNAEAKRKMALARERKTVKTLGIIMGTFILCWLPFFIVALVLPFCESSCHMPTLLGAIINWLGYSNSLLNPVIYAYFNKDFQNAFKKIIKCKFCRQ
Procedure: Specific binding of [^35S]GTPγS is stimulated by activation of the stably expressed human 5-HT1a receptor in a dose-dependent way by agonists for this GPCR and is determined by measuring the radioactive label of the membrane. Non-linear regression analysis of the resulting dose-response curves yields the EC50 value in [nM] representing the half maximal concentration which is necessary to activate the receptor completely.

| Compound | Ki [1] | Ki [2] | Ki [3] | Ki [4] | Ki [5] | Ki [6] | Ki [7] | Ki [8] | selectivity ratio p5-HT2 [1] | selectivity ratio hD2long [6] | selectivity ratio hD3 [7] | selectivity ratio hD2short [8] | selectivity ratio hD4.4 [2] | selectivity ratio p5-HT1a [3] | selectivity ratio pα1 [9] | selectivity ratio pD1 [5] | EC50 (human 5-HT1a receptor; mean values of 2-8 individual experiments) | Emax (human 5-HT1a receptor; read-out: intrinsic activity [% rel. to serotonin]) |
| --- | --- | --- | --- | --- | --- | --- | --- | --- | --- | --- | --- | --- | --- | --- | --- | --- | --- | --- |
| CCCN(CCC)C1CCc2cccc(O)c2C1 (stereo not drawn) [R-(+)-8-OH-DPAT, reference compound] | 2100 nM | 210 nM | 1.2 nM | 250 nM | 3300 nM |  |  |  |  |  |  |  |  |  |  |  |  |  |
| CCCN(CCc1cc(C)ccc1C)C1CCc2cccc(OC)c2C1 (stereo not shown) [Compound 8, N-(8-Methoxytetralin-2-yl)-N-propyl-N-[2-(2,5-dimethyl)phenylethyl]amine] | 4400 nM | 940 nM | 24 nM | 510 nM | 6200 nM | 300 nM | 110 nM | 180 nM |  |  |  |  |  |  |  |  |  |  |
| CCCN(CCc1cc2ccc1CCc1ccc(cc1)CC2)C1CCc2cccc(OC)c2C1 (stereo not shown) [Compound 14, N-(8-Methoxytetralin-2-yl)-N-propyl-N-[2-([2.2]paracyclophan-4-yl)ethyl]-amine] | 7300 nM | 110 nM | 50 nM | 280 nM | 1900 nM | 48 nM | 33 nM | 35 nM | 150 | 0.96 | 0.66 | 0.70 | 2.2 | 1 | 5.6 | 38 |  |  |
| CCCN(CCc1cccs1)C1CCc2cccc(OC)c2C1 (stereo not shown) [Compound 2, N-(8-Methoxytetralin-2-yl)-N-propyl-N-[2-(2-thienyl)ethyl]amine] | 12000 nM | 390 nM | 2.9 nM | 200 nM | 6700 nM | 160 nM | 57 nM | 390 nM |  |  |  |  |  |  |  |  | 6.3 nM | 91% |
| CCCN(CCc1cccs1)[C@H]1CCc2cccc(OC)c2C1 [Compound 2b, (S)—N-(8-Methoxytetralin-2-yl)-N-propyl-N-[2-(2-thienyl)ethyl]amine] | 3900 nM | 760 nM | 6.7 nM | 140 nM | 3300 nM | 85 nM | 32 nM | 58 nM |  |  |  |  |  |  |  |  |  |  |
| CCCN(CCc1cccs1)[C@H]1CCc2cccc(O)c2C1 [Compound 1b, (S)—N-(8-Hydroxytetralin-2-yl)-N-propyl-N-[2-(2-thienyl)ethyl]amine] | 5500 nM | 690 nM | 1.8 nM | 200 nM | 5400 nM | 520 nM | 49 nM | 290 nM | 3 100 | 290 | 26 | 160 | 380 | 1 | 110 | 3 000 |  |  |
| CCCN(CCc1ccc(O)cc1)C1CCc2cccc(O)c2C1 (stereo not shown) [Compound 5, N-[2-(4-Hydroxyphenyl)ethyl]-N-(8-hydroxytetralin-2-yl)-N-propylamine] | 6600 nM | 570 nM | 1.1 nM | 87 nM | 6200 nM | 340 nM | 95 nM | 86 nM | 6 000 | 310 | 86 | 80 | 520 | 1 | 79 | 5 600 |  |  |
| CCCN(CCc1ccccc1)C1CCc2cccc(O)c2C1 (stereo not shown) [Compound 3, N-(8-Hydroxytetralin-2-yl)-N-(2-phenylethyl)-N-propylamine] | 5800 nM | 590 nM | 0.62 nM | 140 nM | 9100 nM | 760 nM | 190 nM | 170 nM | 9 400 | 1 200 | 310 | 270 | 950 | 1 | 230 | 15 000 |  |  |
| CCCN(CCc1ccc(OC)cc1)C1CCc2cccc(OC)c2C1 (stereo not shown) [Compound 6, N-[2-(4-Methoxyphenyl)ethyl]-N-(8-methoxytetralin-2-yl)-N-propylamine] | 4900 nM | 470 nM | 5.5 nM | 230 nM | 9500 nM | 340 nM | 110 nM | 260 nM |  |  |  |  |  |  |  |  |  |  |
| CCCN(CCc1cc2ccc1CCc1ccc(cc1)CC2)C1CCc2cccc(O)c2C1 (stereo not shown) [Compound 13, N-(8-Hydroxytetralin-2-yl)-N-[2-([2.2]paracyclophan-4-yl)ethyl]-N-propylamine] | 2100 nM | 87 nM | 15 nM | 930 nM | 3500 nM | 990 nM | 170 nM | 640 nM | 140 | 66 | 11 | 43 | 5.8 | 1 | 62 | 230 |  |  |
| N-(2-Adamantylethyl)-N-(8-methoxytetralin-2-yl)-N-propylamine [Compound 10] | 14000 nM | 1800 nM | 65 nM | 4900 nM | 12000 nM | 380 nM | 260 nM | 190 nM | 220 | 5.8 | 4.0 | 2.9 | 28 | 1 | 75 | 180 |  |  |
| N-(2-Ferrocenylethyl)-N-(8-methoxytetralin-2-yl)-N-propylamine [Compound 12] | 2200 nM | 3.5 nM | 1.8 nM | 92 nM | 2600 nM | 38 nM | 11 nM | 17 nM |  |  |  |  |  |  |  |  |  |  |
| N-(2-Ferrocenylethyl)-N-(8-hydroxytetralin-2-yl)-N-propylamine [Compound 11] | 930 nM | 7.4 nM | 0.32 nM | 170 nM | 3100 nM | 34 nM | 52 nM | 16 nM |  |  |  |  |  |  |  |  |  |  |
